Reference: patent publication US20240398772A1, “OXASPIRO DERIVATIVE, AND PREPARATION METHOD THEREFOR AND USE THEREOF” (SHUJING BIOPHARMA CO., LTD, priority 2021, published 2024)

How the values were obtained:
MOR = biological target: T1, MOR (Homo sapiens, UniProt P35372); experiment: Agonist test on MOR, cAMP level (CHO-K1/OP3 cells, cAMP assay kit); type: cell-based; conditions: for EC50: forskolin-stimulated cAMP, read-out: EC50 agonizing MOR receptor to affect cAMP level; for Emax: maximal effect of DAMGO is 100%, read-out: Emax agonizing MOR receptor to affect cAMP level
T1 construct: expressed in transfected cells; host or cells: CHO-K1/OP3 (name from the earlier reading)
Method: 5×stimulation buffer was diluted to 1× with ddH2O, an appropriate amount of 500 mM IBMX (generally, the IBMX stock solution was prepared to be 500 mM, namely 1000×) was added to enable the final concentration of the IBMX to be 0.5 mM, and the mixture was mixed well for later use (after the IBMX was added, that precipitation occurred was normal, and the precipitate was dissolved by well mixing). It must be prepared right before use.
1.3.1.2 IBMX was dissolved with DMSO to prepare a 500 mM stock solution, which was aliquoted into 20 μL/tube and cryopreserved at −80° C. to avoid repetition of freezing and thawing.
1.3.1.3 Forskolin was dissolved with DMSO to prepare a 10 mM stock solution, which was aliquoted into 20 μL/tube and cryopreserved at −20° C. for later use.
The CAMP standard substance in the kit returned to room temperature, and an equivalent amount of the experimental buffer was added according to the volume marked on the bottle label. The mixture was vortexed for mixing, aliquoted according to 50 μL/tube, and cryopreserved at −20° C. for later use.
5 mL ddH2O was added to a bottle of cAMP-d2 and a bottle of anti-cAMP-cryptate lyophilized powder, respectively, and the mixture was mixed well by gently turning the mixture upside down, aliquoted according to 125, 62.5, and 30 μL, and the like, and cryopreserved in the dark at −80° C.
1.3.2.1 Positive compound DAMGO and the test compound were serially diluted 4-fold to obtain 10 concentrations with Bravo using experimental buffer in a compound plate (Greiner-781280) at a starting concentration of 2 μM (from DMSO stock solution diluted with experimental buffer) and 20 μM (from DMSO stock solution diluted with experimental buffer), respectively.
1.3.2.2 Cells cryopreserved were thawed in a water bath at 37° C., the cell suspension was added to a centrifuge tube containing 10 mL of HBSS buffer, and the mixture was centrifuged at 750 rpm for 5 min. The supernatant was discarded, the pellet was resuspended in an appropriate amount of experimental buffer, and 20 μL of the pellet was counted using a cell counter. An appropriate amount of the cell suspension was diluted to 0.4×10^6 cells/mL, and 5 μL of the cell suspension was added to each well of a cell plate (the cell density was 2000 cells/well) and centrifuged at 1000 rpm for 1 min. 5 μL of the diluted compound was transferred to a cell plate (PerkinElmer-6008280) with Bravo, 5 μL of 2 μM DAMGO (the final concentration was 1 μM) was transferred to positive control wells, and an equal volume of experimental buffer was transferred to negative control wells, and the cell plate was centrifuged at 1000 rpm for 1 min. The cell plate was sealed and incubated at room temperature for 15 min. Forskolin was diluted to 0.2 mM with DMSO, 25.1 nL of which was transferred to a cell plate with Tecan-D300e, and the plate was centrifuged at 1000 rpm for 1 min, sealed, and incubated at room temperature for 45 min.
The final concentration of the initial point was 712 nM.
1.3.2.4 Preparation of detection reagent: an appropriate amount of a cAMP-d2 stock solution and an anti-cAMP-cryptate stock solution was diluted with a lysis buffer according to the ratio of 1:20, the two solutions were then mixed well by turning the solutions upside down according to the ratio of 1:1, and vortexing was prohibited. 10 μL of the prepared detection reagent was added to a cell plate and centrifuged at 1000 rpm for 1 min. The cell plate was incubated at room temperature for 1 h in the dark. After the cell plate was centrifuged at 1000 rpm for 1 min, the plate was read using Envision. Excitation light at 340 nm, emission light at 620 nm and 665 nm.
The formula for calculating the compound activation rate in the agonist test: […]

[1] = tested on: pain threshold of a mouse; experiment: Mouse thermal radiation tail-flick method; type: in vivo, ICR mice; conditions: for Maximum analgesic percentage (% MPE): ICR mice, intragastric 10 mg/kg, Mean ± SEM, n = 9-10
Method: • Intragastric administration at a dose of 10 mg/kg;
ICR mice (normal grade, weighed 25-35 g, purchased from Shanghai Slac Laboratory Animal Co., Ltd.) were first mounted in a special plastic cylinder, their tails were exposed and allowed to droop naturally, and the measurements were made after the animals were calm. The radiation heat source could be an 8.75 mm projection lamp (32 W, adjustable). A light beam with the diameter of about 4 mm was emitted after being focused by a lens, which irradiated the skin at the junction of the middle third and the lower third of the tail (the light source and the skin at the tail must be closely attached); an electronic timer connected with the light source in parallel was used to synchronously record the irradiation duration, that is, when the irradiation started, a stopwatch was automatically started at the same time. When the tail of the animal obviously evaded, the timing was automatically stopped. The measured time interval was the tail flick latency. Mice with tail flick latency of 2-6 seconds were screened to participate in a grouping administration experiment. […] After a dose of a drug was administered to the mice, the pain threshold of the mice was measured at different times.
After a dose of a drug was administered to the mice, the pain threshold of the mice was measured at 0.5 h, 1 h, 2 h, and 3 h (effect view of the analgesic effect is shown in FIG. 1). The formula for calculating the maximum analgesic percentage (% MPE) after administration was as follows: % MPE=(post-administration pain threshold−pre-administration pain threshold)/(15−pre-administration pain threshold)×100%.

T1 sequence (P35372 whole entry): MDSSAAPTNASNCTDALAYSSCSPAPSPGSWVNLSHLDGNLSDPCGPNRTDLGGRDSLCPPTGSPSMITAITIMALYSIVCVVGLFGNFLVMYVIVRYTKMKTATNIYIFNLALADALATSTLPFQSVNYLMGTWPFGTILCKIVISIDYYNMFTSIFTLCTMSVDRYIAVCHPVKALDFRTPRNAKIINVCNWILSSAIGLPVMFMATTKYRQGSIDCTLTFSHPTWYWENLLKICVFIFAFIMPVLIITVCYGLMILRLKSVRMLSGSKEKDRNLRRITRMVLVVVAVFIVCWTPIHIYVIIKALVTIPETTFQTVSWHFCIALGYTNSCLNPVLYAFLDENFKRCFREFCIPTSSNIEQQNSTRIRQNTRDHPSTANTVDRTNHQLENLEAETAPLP

Compound | EC50 (MOR) [nM] | Emax (MOR) [%] | other results
Fc1ccc(C2(CCN[C@H]3CCc4ccc(F)cc43)CCOC3(CCOCC3)C2)nc1 (stereo partly drawn) [Compound 1-1, (1S)-6-fluoro-N-(2-(4-(5-fluoropyridin-2-yl)-1,9-dioxaspiro[5.5]undecan-4-yl)ethyl)-2,3-dihydro-1H-inden-1-amine] | 0.44 | 103 | 
Fc1ccc(C2(CCN[C@H]3CCc4c(F)cccc43)CCOC3(CCOCC3)C2)nc1 (stereo partly drawn) [Compound 2-1, (1S)-4-fluoro-N-(2-(4-(5-fluoropyridin-2-yl)-1,9-dioxaspiro[5.5]undecan-4-yl)ethyl)-2,3-dihydro-1H-inden-1-amine] | 23.5 | 101 | 
Fc1ccc(C2(CCN[C@H]3CCc4ccccc43)CCOC3(CCOCC3)C2)nc1 (stereo partly drawn) [Compound 3-1, (1S)-N-(2-(-4-(5-fluoropyridin-2-yl)-1,9-dioxaspiro[5.5]undecan-4-yl)ethyl)-2,3-dihydro-1H-inden-1-amine] | 0.79 | 99.9 | 
Fc1ccc(C2(CCNC3CCc4ccc(Cl)cc43)CCOC3(CCOCC3)C2)nc1 (stereo not shown) [Compound 4, 6-chloro-N-(2-(4-(5-fluoropyridin-2-yl)-1,9-dioxaspiro[5.5]undecan-4-yl)ethyl)-2,3-dihydro-1H-inden-1-amine] | 2.19 | 103 | 
Fc1ccc(C2(CCN[C@H]3CCc4c(Cl)cccc43)CCOC3(CCOCC3)C2)nc1 (stereo partly drawn) [Compound 5-1, (1S)-4-chloro-N-(2-(4-(5-fluoropyridin-2-yl)-1,9-dioxaspiro[5.5]undecan-4-yl)ethyl)-2,3-dihydro-1H-inden-1-amine] | 1.33 | 111 | 
Cc1cccc2c1CC[C@@H]2NCCC1(c2ccc(F)cn2)CCOC2(CCOCC2)C1 (stereo partly drawn) [Compound 6-1, (1S)-N-(2-(4-(5-fluoropyridin-2-yl)-1,9-dioxaspiro[5.5]undecan-4-yl)ethyl)-4-methyl-2,3-dihydro-1H-inden-1-amine] | 1.56 | 118 | 
Fc1ccc(C2(CCN[C@H]3CCc4c(Br)cccc43)CCOC3(CCOCC3)C2)nc1 (stereo partly drawn) [Compound 7-1, (1S)-4-bromo-N-(2-(4-(5-fluoropyridin-2-yl)-1,9-dioxaspiro[5.5]undecan-4-yl)ethyl)-2,3-dihydro-1H-inden-1-amine] | 1.69 | 116 | 
Fc1ccc([C@]2(CCN[C@H]3Cc4cccc(Br)c4C3)CCOC3(CCOCC3)C2)nc1 [Compound 10-1-1, (S)-4-bromo-N-(2-((R)-4-(5-fluoropyridin-2-yl)-1,9-dioxaspiro[5.5]undecan-4-yl)ethyl)-2,3-dihydro-1H-inden-2-amine] | 0.8 | 104 | 
Fc1ccc(C2(CCNCc3cccc(Cl)c3)CCOC3(CCOCC3)C2)nc1 (stereo not shown) [Compound 11, N-(3-chlorobenzyl)-2-(4-(5-fluoropyridin-2-yl)-1,9-dioxaspiro[5.5]undecan-4-yl)ethan-1-amine] | 7.75 | 100 | 
Cc1c(Cl)cccc1CNCC[C@@]1(c2ccc(F)cn2)CCOC2(CCOCC2)C1 [Compound 12-1, (R)—N-(3-chloro-2-methylbenzyl)-2-(4-(5-fluoropyridin-2-yl)-1,9-dioxaspiro[5.5]undecan-4-yl)ethan-1-amine] | 1.29 | 93.8 | Maximum analgesic percentage (% MPE) ([1]; 0.5 h after administration): 99.48 ± 0.52 %; Maximum analgesic percentage (% MPE) ([1]; 1 h after administration): 86.20 ± 9.32 %; Maximum analgesic percentage (% MPE) ([1]; 2 h after administration): 89.98 ± 10.02 %; Maximum analgesic percentage (% MPE) ([1]; 3 h after administration): 78.89 ± 10.05 %; Maintenance of the analgesic effect compared with oxycodone ([1]; mouse tail flick, 0.5-3 h after administration): maintained for a longer period of time; Drug effect compared with oxycodone ([1]; mouse tail flick, same dose (10 mg/kg intragastric)): better drug effect than oxycodone
Fc1ccc(C2(CCNCc3cccc(Cl)c3Cl)CCOC3(CCOCC3)C2)nc1 (stereo not shown) [Compound 13, N-(2,3-dichlorobenzyl)-2-(4-(5-fluoropyridin-2-yl)-1,9-dioxaspiro[5.5]undecan-4-yl)ethan-1-amine] | 17.3 | 78.9 | 
Fc1ccc(C2(CCNCc3cccc(Cl)c3F)CCOC3(CCOCC3)C2)nc1 (stereo not shown) [Compound 14, N-(3-chloro-2-fluorobenzyl)-2-(4-(5-fluoropyridin-2-yl)-1,9-dioxaspiro[5.5]undecan-4-yl)ethan-1-amine] | 24.2 | 88.1 | 
Clc1cccc2c1CCC2NCCC1(c2ccccn2)CCOC2(CCOCC2)C1 (stereo not shown) [Compound 16, 4-chloro-N-(2-(4-(pyridin-2-yl)-1,9-dioxaspiro[5.5]undecan-4-yl)ethyl)-2,3-dihydro-1H-inden-1-amine] | 2.4 | 102 | 
Fc1ccc(C2(CCNC3Cc4cccc(Cl)c4C3)CCOC3(CCOCC3)C2)nc1 (stereo not shown) [Compound 17, 4-chloro-N-(2-(4-(5-fluoropyridin-2-yl)-1,9-dioxaspiro[5.5]undecan-4-yl)ethyl)-2,3-dihydro-1H-inden-2-amine] | 2.14 | 93.8 | 
Fc1ccc([C@]2(CCN[C@H]3Cc4cccc(Cl)c4C3)CCOC3(CCOCC3)C2)nc1 [Compound 17-1-1, (S)-4-chloro-N-(2-((R)-4-(5-fluoropyridin-2-yl)-1,9-dioxaspiro[5.5]undecan-4-yl)ethyl)-2,3-dihydro-1H-inden-2-amine] | 0.64 | 102 | 
COc1ccc2c3c1O[C@H]1C(=O)CC[C@@]4(O)[C@@H](C2)N(C)CC[C@]314 [Oxycodone, reference compound] |  | 95.2 | Maximum analgesic percentage (% MPE) ([1]; 0.5 h after administration): 37.87 ± 12.44%; Maximum analgesic percentage (% MPE) ([1]; 2 h after administration): 3.63 ± 8.14%; Maximum analgesic percentage (% MPE) ([1]; 3 h after administration): −0.23 ± 6.48%
